Drawing on patent US20130053243A1, “PLANTS HAVING INCREASED TOLERANCE TO HERBICIDES” (BASF SE, priority 2010, published 2013), this text covers IC50 and Ki for 2 compounds.

SMILES strings stand for the structures.

The IC50 is the concentration that inhibits the measured activity by half. By Ki is commonly meant the dissociation constant of the complex between target and ligand, obtained from inhibition or displacement.

Experiment [1] concerns Chlamydomonas strain CMr13. Description: Growth inhibition of Chlamydomonas strains (tolerance). In kind it is cell-based, Chlamydomonas reinhardtii. As to conditions: read-out: IC50 of growth inhibition. On the procedure: (§1) Algae cells of Chlamydomonas reinhardtii strains CC-503 and CC-1691 (Duke University, Durham, USA) are propagated in TAP medium (Gorman and Levine (1965) PNAS 54: 1665-1669) by constant shaking at 100 rpm, 22° C. and 30 μmol Phot*m^−2*[…] light illumination. Scenedesmus obliquus (University of Gottingen, Germany) are propagated in algae medium as described (Boger and Sandmann, (1993) In: Target assays for modern herbicides and related phytotoxic compounds, Lewis Publishers) under same culturing conditions as mentioned for Chlamydomonas. Compound screening is performed at 450 μmol Phot*m^−2*[…] illumination.
(§2) Sensitive strains of Chlamydomonas reinhardtii or Scenedesmus obliquus (Tables 14, 15) are mutated with 0.14 […] (EMS) for 1 h as described by Loppes (1969, Mol Gen Genet. 104: 172-177) Tolerant strains are identified by screening of mutagenized cells on solid nutrient solution plates containing “coumarone-derivative herbicides” or other HPPD inhibiting herbicides at wildype-lethal concentrations. Examples of the data obtained are depicted in Table 16 and FIG. 2.

Experiment [2] deals with Chlamydomonas strain CC1961 wild-type. Described as above. It counts as cell-based, Chlamydomonas reinhardtii. To be noted: read-out: IC50 of growth inhibition. On the procedure: as §1, §2
The subject of experiment [3] is Chlamydomonas strain CMr06. Described as above. As to conditions: read-out: IC50 of growth inhibition. In kind it is cell-based, Chlamydomonas reinhardtii. On the procedure:
as §1, §2

In experiment [4] the test system is Chlamydomonas strain CMr10. The experiment is described as above. In kind it is cell-based, Chlamydomonas reinhardtii. As to conditions: read-out: IC50 of growth inhibition. The procedure: as §1, §2
Experiment [5] has as its system Chlamydomonas strain CMr04. Described as above. In kind it is cell-based, Chlamydomonas reinhardtii. As to conditions: read-out: IC50 of growth inhibition. The procedure:
as §1, §2

Experiment [6] relates to Chlamydomonas strain CMr15. Described as above. To be noted: read-out: IC50 of growth inhibition. In kind it is cell-based, Chlamydomonas reinhardtii. The procedure: as §1, §2
For the next experiment, the target named is T1, Arabidopsis HPPD (Arabidopsis thaliana, UniProt P93836).
T1 construct: His6 (N); made in house; host or cells: E. coli BL21 (DE3)
T1 sequence (P93836 1-445): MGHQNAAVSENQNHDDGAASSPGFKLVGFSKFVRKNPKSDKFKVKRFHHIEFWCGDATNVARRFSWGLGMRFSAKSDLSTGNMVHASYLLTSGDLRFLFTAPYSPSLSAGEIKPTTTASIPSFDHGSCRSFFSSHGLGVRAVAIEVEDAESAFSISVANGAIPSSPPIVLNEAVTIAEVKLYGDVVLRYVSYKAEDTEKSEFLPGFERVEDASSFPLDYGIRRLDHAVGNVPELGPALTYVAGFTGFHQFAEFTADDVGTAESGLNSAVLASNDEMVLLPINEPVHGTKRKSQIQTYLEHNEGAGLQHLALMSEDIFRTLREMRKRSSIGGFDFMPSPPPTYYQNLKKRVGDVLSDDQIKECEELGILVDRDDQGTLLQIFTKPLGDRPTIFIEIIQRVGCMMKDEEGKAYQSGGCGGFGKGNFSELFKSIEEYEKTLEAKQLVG
The experiment can be described thus: HPPD activity assay (homogentisic acid by HPLC), wildtype enzyme. To be noted: Table 11, calculated from IC50 with Cheng-Prusoff equation, read-out: dissociation constant Ki. In kind it is biochemical. On the procedure: HPPD produces homogentisic acid and CO2 from 4-hydroxyphenylpyruvate (4-HPP) and O2. The activity assay for HPPD is based on the analysis of homogentisic acid by reversed phase HPLC.
The assay mixture can contain 150 mM potassium phosphate buffer pH 7.0, 50 mM L-ascorbic acid, 1 μM FeSO4 and 7 μg of purified enzyme in a total volume of 1 ml.
Inhibitors are dissolved in DMSO (dimethylsulfoxide) to a concentration of 20 mM or 0.5 mM, respectively. From this stock solution serial five-fold dilutions are prepared in DMSO, which are used in the assay. The respective inhibitor solution accounts for 1% of the assay volume. Thus, final inhibitor concentrations range from 200 μM to 2.5 nM or from 5 μM to 63 pM, respectively.
After a preincubation of 30 min the reaction is started by adding 4-HPP to a final concentration of 0.1 mM. The reaction is allowed to proceed for 120 min at room temperature. The reaction is stopped by addition of 100 μl of 4.5 M phosphoric acid.
The sample is extracted on an Oasis® HLB cartridge 3 cc/60 mg (Waters) that was preequilibrated with 63 mM phosphoric acid. L-ascorbic acid is washed out with 3 ml of 63 mM phosphoric acid. […]
10 μl of the eluate is analyzed by reversed phase HPLC on a Symmetry® C18 column (particle size 3.5 μm, dimensions 4.6×100 mm; Waters) using 5 mM H3PO4/15% ethanol (w/w) as an eluent.
Homogentisic acid is detected electrochemically and quantified by measuring peak areas (Empower software; Waters).
Activities are normalized by setting the uninhibited enzyme activity to 100%. IC50 values are calculated using non-linear regression. […]
5 μl of the cleared sample is analyzed on an Atlantis T3 column (particle size 3 μm, dimensions 3×50 mm; Waters) by isocratic elution using 90% 10 mM NaH2PO4 pH 2.2, 10% methanol (v/v).
HGA is detected electrochemically at 750 mV (mode: DC; polarity: positive) and quantified by integrating peak areas (Empower software; Waters).
Inhibitors are dissolved in DMSO (dimethylsulfoxide) to a concentration of 0.5 mM. […] IC50 values are calculated using non-linear regression. […]

In the case of `CC1=NOC(c2c(Cl)ccc(C3=C(O)c4ncccc4N(CC(F)F)S3(=O)=O)c2Cl)C1` (centres unmarked) [Inhibitor 1, 3-[2,4-dichloro-3-(3-methyl-4,5-dihydroisoxazol-5-yl)phenyl]-1-(2,2-difluoroethyl)-2,2-dioxo-pyrido[3,2-c]thiazin-4-ol], the IC50 in experiment [1] was 810 µM; in experiment [2], 620 µM; in experiment [3], above 1000 µM; in experiment [4] it was above 1000 µM; in experiment [5] it was above 1000 µM; in experiment [6], above 1000 µM. Moreover, the Ki on Arabidopsis HPPD was 0.003 µM.
For the compound `Cc1c(C(=O)c2cnn(C)c2O)ccc(S(C)(=O)=O)c1C1=NOCC1` [Topramezone, reference compound], the concentration for half-maximal inhibition (IC50) was found to be 200 µM in experiment [1]; 140 µM in experiment [2]; 860 µM in experiment [3]; 920 µM in experiment [4]; 390 µM in experiment [5]; 230 µM in experiment [6]. On Arabidopsis HPPD, the Ki was 0.004 µM.
